Test in all cases: biochemical
What all share (format): binding

Assay [1] has as its target T1, panel of 442 kinases (Homo sapiens, UniProt O14920).
T1 construct: purchased Ambit Biosciences (scanMAXX KINOMEscan)
T1 sequence (O14920 1-756): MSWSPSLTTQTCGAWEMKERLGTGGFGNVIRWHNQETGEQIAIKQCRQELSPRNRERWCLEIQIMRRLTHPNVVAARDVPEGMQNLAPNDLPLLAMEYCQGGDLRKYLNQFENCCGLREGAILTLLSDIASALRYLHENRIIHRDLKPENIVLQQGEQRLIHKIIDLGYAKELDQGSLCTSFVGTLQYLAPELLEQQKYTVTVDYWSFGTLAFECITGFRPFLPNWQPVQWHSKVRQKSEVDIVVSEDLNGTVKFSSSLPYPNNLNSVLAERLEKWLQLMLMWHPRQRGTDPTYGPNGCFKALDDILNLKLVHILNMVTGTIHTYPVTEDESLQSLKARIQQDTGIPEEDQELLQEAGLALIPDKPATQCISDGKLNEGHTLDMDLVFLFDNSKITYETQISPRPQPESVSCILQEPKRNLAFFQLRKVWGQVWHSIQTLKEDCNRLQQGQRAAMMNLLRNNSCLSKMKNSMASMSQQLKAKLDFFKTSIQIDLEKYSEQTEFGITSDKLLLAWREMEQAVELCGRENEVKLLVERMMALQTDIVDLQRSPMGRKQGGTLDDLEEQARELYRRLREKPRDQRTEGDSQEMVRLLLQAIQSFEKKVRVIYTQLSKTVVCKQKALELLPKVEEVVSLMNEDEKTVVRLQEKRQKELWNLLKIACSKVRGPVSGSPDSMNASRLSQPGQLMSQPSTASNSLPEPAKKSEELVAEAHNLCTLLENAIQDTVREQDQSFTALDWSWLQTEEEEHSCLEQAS
The note with it: kinase IKK-beta; for remaining activity at 1 µM: read-out: % of control at 1 µM.

The target in assay [2] is T2, panel of 442 kinases (Homo sapiens, UniProt Q13188).
T2 construct: purchased Ambit Biosciences (scanMAXX KINOMEscan)
T2 sequence (Q13188 1-491): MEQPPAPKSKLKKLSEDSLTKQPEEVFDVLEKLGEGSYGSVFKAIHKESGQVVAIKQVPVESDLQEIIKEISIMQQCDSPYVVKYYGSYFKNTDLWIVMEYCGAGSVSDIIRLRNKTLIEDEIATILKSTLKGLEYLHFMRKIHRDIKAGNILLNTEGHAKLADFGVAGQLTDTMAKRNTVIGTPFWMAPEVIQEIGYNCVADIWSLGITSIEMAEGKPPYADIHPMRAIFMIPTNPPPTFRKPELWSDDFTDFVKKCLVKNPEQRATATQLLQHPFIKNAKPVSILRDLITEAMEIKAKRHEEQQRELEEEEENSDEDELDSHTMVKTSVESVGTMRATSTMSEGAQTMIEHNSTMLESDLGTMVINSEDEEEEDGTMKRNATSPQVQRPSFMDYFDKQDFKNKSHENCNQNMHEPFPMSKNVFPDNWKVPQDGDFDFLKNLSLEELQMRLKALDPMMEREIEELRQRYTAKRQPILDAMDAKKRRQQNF
To be noted: kinase MST2; for remaining activity at 1 µM: read-out: % of control at 1 µM.

For assay [3], the target named is T3, panel of 442 kinases (Homo sapiens, UniProt P35968).
T3 construct: purchased Ambit Biosciences (scanMAXX KINOMEscan)
The note with it: kinase VEGFR2; for remaining activity at 1 µM: read-out: VEGFR2 (% of control at 1 µM).

For assay [4], the target named is T4, panel of 442 kinases (Homo sapiens, UniProt Q8WXR4).
T4 construct: purchased Ambit Biosciences (scanMAXX KINOMEscan)
T4 sequence (Q8WXR4 1-1341): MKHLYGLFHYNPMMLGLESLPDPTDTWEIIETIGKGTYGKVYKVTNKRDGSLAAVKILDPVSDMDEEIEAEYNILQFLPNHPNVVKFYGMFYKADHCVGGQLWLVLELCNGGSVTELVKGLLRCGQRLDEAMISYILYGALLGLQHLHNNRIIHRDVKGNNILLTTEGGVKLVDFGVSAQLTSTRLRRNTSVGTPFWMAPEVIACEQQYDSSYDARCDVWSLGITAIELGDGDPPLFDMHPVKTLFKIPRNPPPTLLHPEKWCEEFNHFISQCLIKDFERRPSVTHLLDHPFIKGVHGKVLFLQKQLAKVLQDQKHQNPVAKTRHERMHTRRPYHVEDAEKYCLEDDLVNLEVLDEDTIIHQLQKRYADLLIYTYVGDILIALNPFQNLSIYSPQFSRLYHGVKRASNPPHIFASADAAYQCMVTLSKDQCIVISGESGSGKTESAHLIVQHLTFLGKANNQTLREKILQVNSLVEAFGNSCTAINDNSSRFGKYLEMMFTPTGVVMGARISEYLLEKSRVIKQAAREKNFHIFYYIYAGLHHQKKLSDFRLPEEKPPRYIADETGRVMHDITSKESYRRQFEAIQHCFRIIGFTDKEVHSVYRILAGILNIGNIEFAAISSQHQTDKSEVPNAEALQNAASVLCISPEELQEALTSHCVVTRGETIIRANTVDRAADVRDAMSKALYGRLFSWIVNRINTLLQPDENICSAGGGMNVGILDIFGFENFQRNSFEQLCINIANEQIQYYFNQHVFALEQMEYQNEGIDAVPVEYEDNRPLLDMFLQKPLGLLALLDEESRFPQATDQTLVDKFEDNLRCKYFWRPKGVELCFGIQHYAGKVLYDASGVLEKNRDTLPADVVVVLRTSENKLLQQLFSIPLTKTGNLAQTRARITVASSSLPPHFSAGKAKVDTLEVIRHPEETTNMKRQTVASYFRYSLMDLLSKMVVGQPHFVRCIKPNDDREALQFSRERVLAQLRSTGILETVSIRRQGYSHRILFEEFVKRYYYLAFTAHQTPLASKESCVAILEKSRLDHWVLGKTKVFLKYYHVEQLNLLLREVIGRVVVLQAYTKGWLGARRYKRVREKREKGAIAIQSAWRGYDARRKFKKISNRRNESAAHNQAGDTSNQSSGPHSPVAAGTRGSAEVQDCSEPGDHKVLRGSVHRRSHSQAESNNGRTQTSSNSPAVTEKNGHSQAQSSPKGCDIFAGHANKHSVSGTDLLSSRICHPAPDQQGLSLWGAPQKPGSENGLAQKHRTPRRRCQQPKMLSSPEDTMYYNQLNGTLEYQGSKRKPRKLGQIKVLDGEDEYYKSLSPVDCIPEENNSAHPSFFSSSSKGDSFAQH
The note with it: kinase MYO3B; for remaining activity at 1 µM: read-out: % of control at 1 µM.

Assay [5] has as its target T5, panel of 442 kinases (Homo sapiens, UniProt P00519, Y253F).
T5 construct: purchased Ambit Biosciences (scanMAXX KINOMEscan)
The note with it: ABL1(Y253F)-phosphorylated; for remaining activity at 1 µM: read-out: % of control at 1 µM.

Setting [6] is: 10 µM, read-out: % of control at 10 µM.

T3 sequence (P35968 20-1356): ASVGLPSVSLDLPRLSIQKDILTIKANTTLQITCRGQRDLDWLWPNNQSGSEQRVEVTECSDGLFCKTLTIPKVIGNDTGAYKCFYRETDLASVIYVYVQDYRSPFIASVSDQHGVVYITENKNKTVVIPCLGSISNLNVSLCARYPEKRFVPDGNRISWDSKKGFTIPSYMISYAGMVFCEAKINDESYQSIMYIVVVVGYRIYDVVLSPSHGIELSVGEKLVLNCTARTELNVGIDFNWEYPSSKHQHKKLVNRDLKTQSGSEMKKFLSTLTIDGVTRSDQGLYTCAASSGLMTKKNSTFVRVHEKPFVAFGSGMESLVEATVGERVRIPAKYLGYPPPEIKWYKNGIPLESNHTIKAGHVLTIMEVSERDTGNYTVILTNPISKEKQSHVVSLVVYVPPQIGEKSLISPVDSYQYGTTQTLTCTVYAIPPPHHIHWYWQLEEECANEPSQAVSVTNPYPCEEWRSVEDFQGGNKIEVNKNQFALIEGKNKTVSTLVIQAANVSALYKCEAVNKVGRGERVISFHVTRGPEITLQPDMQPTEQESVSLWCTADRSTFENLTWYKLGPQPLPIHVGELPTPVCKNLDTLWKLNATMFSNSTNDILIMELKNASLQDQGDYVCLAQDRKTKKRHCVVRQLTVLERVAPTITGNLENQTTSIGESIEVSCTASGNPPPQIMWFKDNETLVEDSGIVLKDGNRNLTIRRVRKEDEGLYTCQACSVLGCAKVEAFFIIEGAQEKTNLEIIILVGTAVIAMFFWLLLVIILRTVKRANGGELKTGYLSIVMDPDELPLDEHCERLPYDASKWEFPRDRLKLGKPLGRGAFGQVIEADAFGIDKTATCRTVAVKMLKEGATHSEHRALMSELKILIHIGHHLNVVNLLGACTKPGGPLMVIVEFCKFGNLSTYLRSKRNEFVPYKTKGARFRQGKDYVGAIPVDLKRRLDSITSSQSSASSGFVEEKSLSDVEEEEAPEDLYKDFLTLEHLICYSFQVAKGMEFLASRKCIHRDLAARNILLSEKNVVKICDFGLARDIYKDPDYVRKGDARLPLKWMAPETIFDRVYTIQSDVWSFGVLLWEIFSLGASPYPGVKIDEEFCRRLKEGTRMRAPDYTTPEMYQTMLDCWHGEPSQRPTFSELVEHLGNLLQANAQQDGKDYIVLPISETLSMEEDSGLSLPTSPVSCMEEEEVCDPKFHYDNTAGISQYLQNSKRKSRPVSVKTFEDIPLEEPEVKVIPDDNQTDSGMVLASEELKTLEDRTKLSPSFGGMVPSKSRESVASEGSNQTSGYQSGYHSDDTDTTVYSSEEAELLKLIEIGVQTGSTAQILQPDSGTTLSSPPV

As for `Nc1cc(C(F)(F)F)c(-c2cc(N3CCOCC3)nc(N3CCOCC3)n2)cn1` [Buparlisib], the remaining activity at 1 µM in assay [1] is 92%; in assay [2], 89%; in assay [3], 87%; in assay [4], 51%; in assay [5], 85%. Besides, the remaining activity at 10 µM stood at 100% in assay [1] (setting [6]); 84% in assay [2] (setting [6]); 100% in assay [3] (10 µM, read-out: VEGFR2 (% of control at 10 µM)); 73% in assay [4] (setting [6]); 94% in assay [5] (setting [6]).

Turning to `Cn1c(=O)n(-c2ccc(C(C)(C)C#N)cc2)c2c3cc(-c4cnc5ccccc5c4)ccc3ncc21` [Dactolisib, 2-methyl-2-[4-(3-methyl-2-oxo-8-quinolin-3-yl-2,3-dihydroimidazo[4,5-c]quinolin-1-yl)-phenyl] propionitrile], the remaining activity at 1 µM in assay [1] came to 73%; in assay [2], 43%; in assay [3], 100%; in assay [4], 81%; in assay [5], 82%.

`FC(F)c1nc2ccccc2n1-c1nc(N2CCOCC2)nc(N2CCOCC2)n1` [ZSTK474, 2-(difluoromethyl)-1-[4,6-di(4-morpholinyl)-1,3,5-triazin-2-yl]-1H-benzimidazole]: the remaining activity at 1 µM was determined as 88% in assay [1]; 76% in assay [2]; 100% in assay [3]; 64% in assay [4]; 96% in assay [5].

As to `COc1ncc(-c2ccc3nccc(-c4ccnnc4)c3c2)cc1NS(=O)(=O)c1ccc(F)cc1F` [Omipalisib], the remaining activity at 1 µM was 100% in assay [1]; 53% in assay [2]; 78% in assay [3]; 91% in assay [4]; 100% in assay [5].

These data come from article PMC5564600 (Oncotarget, 2017).
